# Results published in patent US12157736B2, “Spiro-lactam NMDA modulators and methods of using same” (Tenacia Biotechnology (Hong Kong) Co., Limited, priority 2016, dated 2024).
# Legend:
# NMDAR2A = target: T1, NMDAR2A (Homo sapiens, UniProt Q12879); experiment: NMDAR agonist assay, [3H]MK-801 binding, NMDAR2A expressing HEK cell membranes; format: biochemical; settings: 50 μM glutamate; for EC50: read-out: NMDAR2A: log EC50 (converted)
# T1 construct: expressed in transfected cells; host or cells: HEK cells (membrane extract)
# Description: (§1) Assays were conducted as described by Moskal et al., “GLYX-13: a monoclonal antibody-derived peptide that acts as an N-methyl-D-aspartate receptor modulator,” Neuropharmacology, 49, 1077-87, 2005. These studies were designed to determine if the test compounds act to facilitate NMDAR activation in NMDAR2A, NMDAR2B, NMDAR2C or NMDAR2D expressing HEK cell membranes as measured by increases in [^3H]MK-801 binding.
# (§2) In the assay, 300 μg of NMDAR expressing HEK cell membrane extract protein was preincubated for 15 minutes at 25° C. in the presence of saturating concentrations of glutamate (50 μM) and varying concentrations of test compound (1×10^−15M−1×10^−7M), or 1 mM glycine. Following the addition of […] of [^3H]MK-801 (22.5 Ci/mmol), reactions were again incubated for 15 minutes at 25° C. (nonequilibrium conditions). Bound and free [^3H]MK-801 were separated via rapid filtration using a Brandel apparatus.
# (§3) In analyzing the data, the DPM (disintegrations per minute) of [^3H]MK-801 remaining on the filter were measured for each concentration of test compound or for 1 mM glycine. The DPM values for each concentration of a ligand (N=2) were averaged. The baseline value was determined from the best fit curve of the DPM values modeled using the GraphPad program and the log(agonist) vs. response (three parameters) algorithm was then subtracted from all points in the dataset. The % maximal [3H]MK-801 binding was then calculated relative to that of 1 mM glycine: all baseline subtracted DPM values were divided by the average value for 1 mM glycine. The EC50 and % maximal activity were then obtained from the best fit curve of the % maximal [3H]MK-801 binding data modelled using the GraphPad program and the log(agonist) vs. response (three parameters) algorithm.
# (§4) The tables below summarize the results for the wild type […] NMDAR2A, NMDAR2B, NMDAR2C, and NMDAR2D, and whether the compound is not an agonist (−), is an agonist (+), or is a strong agonist (++), where column A is based on the % maximal [3H]MK-801 binding relative to 1 mM glycine (−=0; <100%=+; and >100%=++); and column B is based on log EC50 values (0=−; ≥1×10^−9 M (e.g., −8)=+; and <1×10^−9 M (e.g., −10)=++).
# NMDAR2C = target: T2, NMDAR2C (Homo sapiens, UniProt Q14957); experiment: NMDAR agonist assay, [3H]MK-801 binding, NMDAR2C expressing HEK cell membranes; format: biochemical; settings: 50 μM glutamate; for EC50: read-out: NMDAR2C: log EC50 (converted)
# T2 construct: expressed in transfected cells; host or cells: HEK cells (membrane extract)
# Description: as §1, §2, §3, §4
# NMDAR2D = target: T3, NMDAR2D (Homo sapiens, UniProt O15399); experiment: NMDAR agonist assay, [3H]MK-801 binding, NMDAR2D expressing HEK cell membranes; format: biochemical; settings: 50 μM glutamate
# T3 construct: expressed in transfected cells; host or cells: HEK cells (membrane extract)
# Description: as §1, §2
# as §3, with “algorithm. […]” for “algorithm.”
# IV pharmacokinetics = format: in vivo, Sprague Dawley rats; settings: rat, 2 mg/kg, normal saline
# Description: Sprague Dawley rats were dosed intravenously using a normal saline formulation containing 2 mg/kg of the compounds identified in the below table. The table below summarizes the results of the IV pharmacokinetics.
# rats [1] = experiment: Porsolt forced swim test; format: in vivo, Sprague Dawley rats
# Description: A non-clinical in vivo pharmacology study (Porsolt assay) was performed to measure antidepressant-like effects. A negative control (0.5% sodium carboxymethyl cellulose in 0.9% sterile saline vehicle) and a positive control (fluoxetine) are shown for comparison against test compound. The study allowed for the evaluation of the effects of each compound on the Porsolt forced swim test as assessed by the rats' response (reduced floating time) during a 5-minute swimming test.
# (§5) Male 2-3 month old Sprague Dawley rats were used (Harlan, Indianapolis, IN). Rats were housed in Lucite cages with aspen wood chip bedding, maintained on a 12:12 light:dark cycle (lights on at 5 AM), and given ad libitum access to Purina lab chow (USA) and tap water throughout the study.
# The Porsolt forced swim test adapted for use in rats was performed as described by Burgdorf et al., (The long-lasting antidepressant effects of rapastinel (GLYX-13) are associated with a metaplasticity process in the medial prefrontal cortex and hippocampus. Neuroscience 308:202-211, 2015). Animals were placed in a 46 cm tall×20 cm in diameter clear glass tube filled to 30 cm with tap water (23±1° C.) for 15 min on the first day (habituation) and 5 min on the subsequent test day. Positive control fluoxetine was dosed 3 times (24 h, 5 h and 1 h) prior to testing. Animals were tested 1 h or 24 h post-dosing with the test compounds or vehicle. Animals received a 15 min habituation session 1 day before the 5 min test. Water was changed after every other animal. Animals were videotaped, and floating time as defined as the minimal amount of effort required to keep the animals head above water was scored offline by a blinded experimenter with high inter-rater reliability (Pearson's r>0.9).
# Each compound tested at dose level shown. Significance vs. vehicle group for each experiment is marked. […] A compound marked “No” was not statistically significant from vehicle. Data was averaged for test compound and vehicle groups (N approximately 8 per group) and the percent reduction in floating for group treated with test compound relative to group treated with vehicle is shown.
# NMDAR2B = target: T4, NMDAR2B (Homo sapiens, UniProt Q13224); experiment: NMDAR agonist assay, [3H]MK-801 binding, NMDAR2B expressing HEK cell membranes; format: biochemical; settings: 50 μM glutamate
# T4 construct: expressed in transfected cells; host or cells: HEK cells (membrane extract)
# Description: as §1, §2, §3, §4
# rats [2] = experiment: Bennett model of mechanical analgesia (sciatic nerve chronic constriction injury); format: in vivo, Sprague Dawley rats; settings: 150 mg/kg PO
# Description: The Bennett model of mechanical analgesia is used to assess the analgesic effects of compounds as measured by paw withdrawal threshold. Bennett G J, Xie Y K, “A peripheral mononeuropathy in rat that produces disorders of pain sensation like those seen in man,” Pain 33:87-107, 1988. […] Vehicle animals receive the surgery and then receive vehicle rather than test compound. Animals were tested 1 hr, 24 h and 1 wk post-test compound or vehicle administration.
# as §5, with “used. Harlan was the supplier for all studies.” for “used (Harlan, Indianapolis, IN).”
# Rats were anesthetized using inhaled isoflurane (2.5%). Sciatic nerve chronic constriction nerve injury surgery was performed as previously described (Bennett and Xie, 1988). An incision (˜1.5 cm in length) was made with a scalpel blade dorsally through skin on the right hind limb, parallel and posterior to femur. Using a small pointed hemostat, the biceps femoris and gluteus superficialis muscles were separated. Using curved blunt forceps, the common sciatic nerve was isolated and exposed. For the mechanical analgesia studies, the whole sciatic nerve was ligated. Using hemostats/forceps and chromic gut (5-0), the nerve was loosely ligated with a square knot; 3 ligatures, 1 mm apart were placed on the nerve. […] Testing occurred approximately 2 weeks post-surgery.
# During testing, rats were acclimated to the surface of a suspended wire mesh grid (1 cm×1 cm, with the wire being 0.3 cm in diameter) for 15-20 min. Starting from the smallest, each Von Frey filament was pressed perpendicularly to the plantar surface of the affected (ipsilateral) hind paw until slightly bent and then held for 6 second. If an obvious hind paw withdrawal or a flinching behavior immediately after the withdrawal of the filament was not observed, the next larger filament was used in the same manner. In case of a response, a lower filament was used. This was repeated until six responses were collected.
# For all studies, animals were baselined prior to study start to test for allodynia (defined as a paw withdrawal threshold under 5). A subset of animals was tested with gabapentin (150 mg/kg, PO) to ensure at least 50% analgesia. Once it was confirmed animals were ready for study initiation, animals were balanced across groups. All study investigators were blind to treatment conditions. Animals were dosed with 0.1, 1, 10, or 30 mg/kg of test compound via oral gavage (PO), control sets of animals were dosed with gabapentin (150 mg/kg, PO) or vehicle (0.5% Na-CMC in 0.9% sterile saline, PO). Testing occurred 1 h post-dosing with animals retested 24 hrs and 1 week post-dosing. The percent analgesia calculations for each animal were made using the following equation: % analgesia=[(log(x)−y)/((log(z)−y)]*100, where x=the paw withdrawal threshold for the drug-treated animal in grams, y=the average of the log(x) values for the vehicle treated group, and z=the paw withdrawal threshold for naïve animals in grams (historical value of 15 used). The results for Compound AA-2, where the percentage of analgesia is measured at 1 hour, 24 hours, and 1 week after compound administration are as follows: for 0.1 mg/kg dose: 22.3% at 1 h, 1.6% at 24 h, and 2.3% at 1 wk; for 1 mg/kg dose: 19.2% at 1 h, 10.7% at 24 h, and 11.0% at 1 wk; for 10 mg/kg dose: 38.1% at 1 h, 24.3% at 24 h, and 41.4% at 1 wk; and for 30 mg/kg dose: 24.4% at 1 h, 8.7% at 24 h, and 34.5% at 1 wk.
# [3] = 1 h post-dose, 0.1 mg/kg, Yes = statistically significant (p<=0.05) from vehicle
# [4] = 24 h post-dose, 0.1 mg/kg, Yes = statistically significant (p<=0.05) from vehicle
# T1 sequence (Q12879 23-1464, species assumed, other chains not shown): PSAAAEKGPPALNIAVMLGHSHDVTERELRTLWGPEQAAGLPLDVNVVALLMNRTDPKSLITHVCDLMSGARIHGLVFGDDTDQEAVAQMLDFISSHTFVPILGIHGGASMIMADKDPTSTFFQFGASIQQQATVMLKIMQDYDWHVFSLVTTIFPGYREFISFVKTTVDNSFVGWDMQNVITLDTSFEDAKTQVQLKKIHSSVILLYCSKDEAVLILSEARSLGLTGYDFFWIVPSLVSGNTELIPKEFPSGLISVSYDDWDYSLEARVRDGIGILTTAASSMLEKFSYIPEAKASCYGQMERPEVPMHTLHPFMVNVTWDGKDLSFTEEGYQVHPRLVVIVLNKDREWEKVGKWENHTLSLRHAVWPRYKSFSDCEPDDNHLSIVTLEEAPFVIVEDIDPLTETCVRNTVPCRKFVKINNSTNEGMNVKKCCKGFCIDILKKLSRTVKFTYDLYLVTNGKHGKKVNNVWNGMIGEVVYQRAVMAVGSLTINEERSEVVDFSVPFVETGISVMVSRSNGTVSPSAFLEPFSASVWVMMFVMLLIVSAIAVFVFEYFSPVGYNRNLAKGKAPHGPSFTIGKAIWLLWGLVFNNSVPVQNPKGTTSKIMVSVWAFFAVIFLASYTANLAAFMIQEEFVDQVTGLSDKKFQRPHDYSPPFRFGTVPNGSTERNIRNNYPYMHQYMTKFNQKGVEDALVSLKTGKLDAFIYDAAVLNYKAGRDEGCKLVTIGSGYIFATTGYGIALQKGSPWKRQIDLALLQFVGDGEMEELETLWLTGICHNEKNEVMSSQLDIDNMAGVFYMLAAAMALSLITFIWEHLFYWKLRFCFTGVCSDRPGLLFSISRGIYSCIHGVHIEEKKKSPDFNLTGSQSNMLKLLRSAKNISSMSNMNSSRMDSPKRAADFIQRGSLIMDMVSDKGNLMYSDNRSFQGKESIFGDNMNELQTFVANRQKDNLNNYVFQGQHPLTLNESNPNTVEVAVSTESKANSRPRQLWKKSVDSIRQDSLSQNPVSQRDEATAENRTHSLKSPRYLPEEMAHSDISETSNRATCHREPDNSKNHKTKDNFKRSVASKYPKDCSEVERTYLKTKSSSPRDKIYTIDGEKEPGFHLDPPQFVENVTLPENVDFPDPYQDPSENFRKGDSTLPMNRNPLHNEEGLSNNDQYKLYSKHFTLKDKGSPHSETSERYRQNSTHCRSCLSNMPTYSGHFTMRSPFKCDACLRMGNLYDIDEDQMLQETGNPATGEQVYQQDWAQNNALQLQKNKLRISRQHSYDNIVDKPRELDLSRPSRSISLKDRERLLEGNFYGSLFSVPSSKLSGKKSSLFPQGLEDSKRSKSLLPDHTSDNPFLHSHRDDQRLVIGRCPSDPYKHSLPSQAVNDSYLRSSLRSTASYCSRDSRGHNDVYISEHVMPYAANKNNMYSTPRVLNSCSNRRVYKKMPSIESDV
# T2 sequence (Q14957 20-1233, species assumed, other chains not shown): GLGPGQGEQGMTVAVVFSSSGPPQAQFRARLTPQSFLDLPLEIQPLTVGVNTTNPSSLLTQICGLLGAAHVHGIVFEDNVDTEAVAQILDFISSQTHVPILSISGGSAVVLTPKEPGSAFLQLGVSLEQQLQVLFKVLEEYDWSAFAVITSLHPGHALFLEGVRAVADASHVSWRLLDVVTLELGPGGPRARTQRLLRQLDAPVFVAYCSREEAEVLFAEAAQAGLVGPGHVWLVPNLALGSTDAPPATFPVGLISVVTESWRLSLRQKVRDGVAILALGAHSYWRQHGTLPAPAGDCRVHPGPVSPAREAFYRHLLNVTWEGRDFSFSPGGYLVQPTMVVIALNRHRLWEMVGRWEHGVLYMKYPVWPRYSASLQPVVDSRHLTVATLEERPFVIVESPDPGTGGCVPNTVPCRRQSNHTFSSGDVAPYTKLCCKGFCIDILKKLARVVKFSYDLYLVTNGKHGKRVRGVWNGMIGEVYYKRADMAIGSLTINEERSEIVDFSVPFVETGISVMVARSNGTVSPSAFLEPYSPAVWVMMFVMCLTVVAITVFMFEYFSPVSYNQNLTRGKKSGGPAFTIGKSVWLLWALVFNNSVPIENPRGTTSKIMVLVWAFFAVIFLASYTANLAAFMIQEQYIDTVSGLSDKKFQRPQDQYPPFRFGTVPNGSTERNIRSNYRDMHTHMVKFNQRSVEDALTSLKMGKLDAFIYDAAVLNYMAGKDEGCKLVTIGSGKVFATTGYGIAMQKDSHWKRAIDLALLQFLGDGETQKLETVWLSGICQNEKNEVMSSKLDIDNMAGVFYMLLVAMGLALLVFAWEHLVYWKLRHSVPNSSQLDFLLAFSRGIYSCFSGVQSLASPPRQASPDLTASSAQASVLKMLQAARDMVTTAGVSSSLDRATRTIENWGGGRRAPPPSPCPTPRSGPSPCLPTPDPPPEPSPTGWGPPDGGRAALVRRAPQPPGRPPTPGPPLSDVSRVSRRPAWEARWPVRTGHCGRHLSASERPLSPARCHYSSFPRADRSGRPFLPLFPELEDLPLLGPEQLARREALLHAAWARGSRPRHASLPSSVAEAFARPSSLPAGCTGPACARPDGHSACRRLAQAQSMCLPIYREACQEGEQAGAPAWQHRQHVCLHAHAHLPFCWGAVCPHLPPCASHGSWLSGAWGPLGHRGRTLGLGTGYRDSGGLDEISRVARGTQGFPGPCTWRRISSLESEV
# T3 sequence (O15399 28-1336, species assumed, other chains not shown): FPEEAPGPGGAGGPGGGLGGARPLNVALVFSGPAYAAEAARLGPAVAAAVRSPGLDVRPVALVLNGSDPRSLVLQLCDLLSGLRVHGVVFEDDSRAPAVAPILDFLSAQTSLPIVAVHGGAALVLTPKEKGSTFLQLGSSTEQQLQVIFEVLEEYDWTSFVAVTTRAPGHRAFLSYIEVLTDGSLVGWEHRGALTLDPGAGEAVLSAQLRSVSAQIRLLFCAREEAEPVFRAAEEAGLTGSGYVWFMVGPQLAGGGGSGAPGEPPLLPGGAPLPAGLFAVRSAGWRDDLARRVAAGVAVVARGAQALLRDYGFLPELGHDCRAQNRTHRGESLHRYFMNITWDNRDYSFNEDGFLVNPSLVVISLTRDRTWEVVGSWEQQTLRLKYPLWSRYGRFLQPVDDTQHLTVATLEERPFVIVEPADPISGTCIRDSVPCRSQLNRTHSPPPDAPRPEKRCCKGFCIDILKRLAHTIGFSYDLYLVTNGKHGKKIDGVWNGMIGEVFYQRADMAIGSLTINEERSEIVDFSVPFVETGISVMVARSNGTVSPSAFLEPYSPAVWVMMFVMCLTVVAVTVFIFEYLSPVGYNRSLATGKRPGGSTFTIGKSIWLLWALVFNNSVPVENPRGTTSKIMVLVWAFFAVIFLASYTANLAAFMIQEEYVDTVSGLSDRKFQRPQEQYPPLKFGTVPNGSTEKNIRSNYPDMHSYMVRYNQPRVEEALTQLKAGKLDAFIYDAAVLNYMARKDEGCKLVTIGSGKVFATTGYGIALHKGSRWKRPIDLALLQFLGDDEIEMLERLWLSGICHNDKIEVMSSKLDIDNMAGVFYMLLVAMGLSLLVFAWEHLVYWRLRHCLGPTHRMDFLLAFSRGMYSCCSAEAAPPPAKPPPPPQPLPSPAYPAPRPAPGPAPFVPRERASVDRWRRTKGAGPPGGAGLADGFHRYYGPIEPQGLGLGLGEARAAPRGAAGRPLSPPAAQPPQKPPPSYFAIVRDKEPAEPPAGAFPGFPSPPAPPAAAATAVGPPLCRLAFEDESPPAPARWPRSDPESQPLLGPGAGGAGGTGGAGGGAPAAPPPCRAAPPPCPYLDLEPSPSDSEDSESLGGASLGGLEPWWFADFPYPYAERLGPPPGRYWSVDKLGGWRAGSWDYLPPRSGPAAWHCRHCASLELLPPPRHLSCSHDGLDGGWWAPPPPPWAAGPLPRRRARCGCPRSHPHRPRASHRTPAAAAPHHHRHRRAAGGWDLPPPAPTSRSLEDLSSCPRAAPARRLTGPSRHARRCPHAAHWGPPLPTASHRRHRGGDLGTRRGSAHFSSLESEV
SMILES,EC50 (NMDAR2A) [nM],NMDAR2C A: % maximal [3H]MK-801 binding relative to 1 mM glycine (NMDAR2C),EC50 (NMDAR2C) [nM],NMDAR2D: % maximal [3H]MK-801 binding relative to 1 mM glycine (NMDAR2D),CI (IV pharmacokinetics) [mL/min/kg],Significance vs. vehicle (rats [1]; [3]),Significance vs. vehicle (rats [1]; [4]),further results
"COc1ccc(CN2CC3(CCNC(=O)C3)C2=O)cc1 (racemic) [AA-rac, 2-(4-methoxybenzyl)-2,7-diazaspiro[3.5]nonane-1,6-dione]",> 100,− (−=0),> 100,+ (<100%=+),5.28,Yes,Yes,
"C[C@@H](O)[C@@H](C(=O)NCc1ccccc1)N1CC2(CCNC(=O)C2)C1=O (single isomer, unassigned) [CB]",,,,,25.31,,,NMDAR2A: % maximal [3H]MK-801 binding relative to 1 mM glycine (NMDAR2A): − (−=0); NMDAR2B: % maximal [3H]MK-801 binding relative to 1 mM glycine (NMDAR2B): + (<100%=+)
"C[C@@H](O)[C@@H](C(=O)N(C)C)N1CC2(CCNC(=O)C2)C1=O (single isomer, unassigned) [CC]",> 100,,,,15.65,,,Emax (NMDAR2A; read-out: NMDAR2A: % maximal [3H]MK-801 binding relative to 1 mM glycine): 0%
"COc1ccc(CN2CC3(CCN(C)C(=O)C3)C2=O)cc1 (single isomer, unassigned) [CI, 2-(4-methoxybenzyl)-7-methyl-2,7-diazaspiro[3.5]nonane-1,6-dione]",,,,,32,,,
"CCN1CCC2(CC1=O)CN(Cc1ccc(OC)cc1)C2=O (single isomer, unassigned) [CL, 7-ethyl-2-(4-methoxybenzyl)-2,7-diazaspiro[3.5]nonane-1,6-dione]",,,,,41.73,,,NMDAR2A: % maximal [3H]MK-801 binding relative to 1 mM glycine (NMDAR2A): + (<100%=+); NMDAR2B: % maximal [3H]MK-801 binding relative to 1 mM glycine (NMDAR2B): + (<100%=+)
"COc1ccc(CN2C[C@]3(CCNC(=O)C3)C2=O)cc1 [AA-1, 2-(4-methoxybenzyl)-2,7-diazaspiro[3.5]nonane-1,6-dione]",> 100,− (−=0),> 100,+ (<100%=+),9.69,Yes,Yes,
"COc1ccc(CN2C[C@@]3(CCNC(=O)C3)C2=O)cc1 [Compound AA-2, 2-(4-methoxybenzyl)-2,7-diazaspiro[3.5]nonane-1,6-dione]",> 100,− (−=0),> 100,+ (<100%=+),9.82,Yes,Yes,
"CNCCC(Oc1ccc(C(F)(F)F)cc1)c1ccccc1 (centres unmarked) [Fluoxetine, fluoxetine, reference compound]",,,,,,,,"Significance vs. vehicle (rats [1]; 1 h post-dose, 20 mg/kg, dosed 3 times (24 h, 5 h and 1 h) prior to testing, positive control): Yes"
NCC1(CC(=O)O)CCCCC1 [gabapentin],,,,,,,,"% analgesia, control group of the study (rats [2]; 1 week post-administration): under 5%; % analgesia, example (typical) control values (rats [2]; 1 wk): 0%; % analgesia, example (typical) control values (rats [2]; 1 h): 72%; % analgesia, control group of the study (rats [2]; 1 h post-administration): at least 50%; % analgesia, example (typical) control values (rats [2]; 24 h): 16%; % analgesia, control group of the study (rats [2]; 24 h post-administration): under 5%"
